From the NIST ThermoML archive (doi:10.1021/je900284z)
Values joined by “and” are separate entries in the source; they are usually repeats but may differ in a detail not shown here. Equal values may be shown once.

Conditions: Liquid; for viscosity: Falling or rolling sphere viscometry; for mass density: 101.33 kPa

CC(C)CCCCCCCOC(=O)c1ccccc1C(=O)OCCCCCCCC(C)C
Conditions | viscosity
273.15 K, 100 kPa | 625.8 mPa·s
273.15 K, 9900 kPa | 845.1 mPa·s
298.15 K, 100 kPa | 87.41 mPa·s and 87.37 mPa·s
298.15 K, 9600 kPa | 110.7 mPa·s
298.15 K, 20600 kPa | 145 mPa·s
298.15 K, 20700 kPa | 145.5 mPa·s
298.15 K, 30100 kPa | 182.5 mPa·s
298.15 K, 30300 kPa | 183 mPa·s
298.15 K, 40700 kPa | 234.2 mPa·s
298.15 K, 50200 kPa | 289.4 mPa·s
298.15 K, 59200 kPa | 356.2 mPa·s
298.15 K, 71600 kPa | 465.4 mPa·s
298.15 K, 82000 kPa | 589 mPa·s
298.15 K, 83300 kPa | 608.4 mPa·s
313.15 K, 100 kPa | 37.71 mPa·s
313.15 K, 10900 kPa | 47.29 mPa·s
313.15 K, 21200 kPa | 58.95 mPa·s
313.15 K, 30600 kPa | 71.54 mPa·s
313.15 K, 40900 kPa | 88.99 mPa·s
313.15 K, 51600 kPa | 109.1 mPa·s
313.15 K, 62400 kPa | 136.7 mPa·s
313.15 K, 71300 kPa | 160.8 mPa·s
313.15 K, 80300 kPa | 192.4 mPa·s
313.15 K, 89800 kPa | 234.4 mPa·s
338.15 K, 100 kPa | 13.37 mPa·s [middle of 4 runs]
338.15 K, 9700 kPa | 15.54 mPa·s
338.15 K, 10700 kPa | 16.28 mPa·s
338.15 K, 19400 kPa | 18.62 mPa·s
338.15 K, 20500 kPa | 19.38 mPa·s
338.15 K, 31000 kPa | 23.29 mPa·s
338.15 K, 31770 kPa | 23.04 mPa·s
338.15 K, 40100 kPa | 27.24 mPa·s
338.15 K, 41110 kPa | 26.91 mPa·s
338.15 K, 50300 kPa | 32.42 mPa·s
338.15 K, 51100 kPa | 31.86 mPa·s
338.15 K, 60400 kPa | 38.31 mPa·s
338.15 K, 60510 kPa | 37.34 mPa·s
338.15 K, 70700 kPa | 45.25 mPa·s
338.15 K, 70710 kPa | 43.6 mPa·s
338.15 K, 80200 kPa | 52.53 mPa·s
338.15 K, 80970 kPa | 51.73 mPa·s
348.15 K, 100 kPa | 9.71 mPa·s
348.15 K, 9800 kPa | 11.47 mPa·s
348.15 K, 20600 kPa | 13.71 mPa·s
348.15 K, 30230 kPa | 15.96 mPa·s
348.15 K, 31300 kPa | 16.34 mPa·s
348.15 K, 40810 kPa | 18.91 mPa·s
348.15 K, 50600 kPa | 22.15 mPa·s
348.15 K, 50710 kPa | 22.05 mPa·s
348.15 K, 61220 kPa | 25.89 mPa·s
348.15 K, 69800 kPa | 29.77 mPa·s
348.15 K, 72330 kPa | 30.55 mPa·s
348.15 K, 85770 kPa | 37.23 mPa·s

CC(C)CCCC(C)CCCC(C)CCCCC(C)CCCC(C)CCCC(C)C (stereo not drawn) [2,6,10,15,19,23-hexamethyltetracosane]
Conditions | viscosity
273.15 K, 100 kPa | 116 mPa·s and 116.2 mPa·s
273.15 K, 600 kPa | 121.9 mPa·s
273.15 K, 10600 kPa | 159.6 mPa·s
273.15 K, 20600 kPa | 208 mPa·s
273.15 K, 30700 kPa | 267.6 mPa·s
273.15 K, 41400 kPa | 348.4 mPa·s
273.15 K, 50500 kPa | 442.3 mPa·s
283.15 K, 100 kPa | 59.25 mPa·s and 59.27 mPa·s
283.15 K, 9600 kPa | 76.31 mPa·s
283.15 K, 19900 kPa | 97.69 mPa·s
283.15 K, 25810 kPa | 115.2 mPa·s
283.15 K, 50880 kPa | 206.5 mPa·s
283.15 K, 76760 kPa | 360.6 mPa·s
283.15 K, 100400 kPa | 573.5 mPa·s
293.15 K, 100 kPa | 35.97 mPa·s and 35.96 mPa·s
298.15 K, 100 kPa | 28.45 mPa·s [middle of 6 runs]
298.15 K, 700 kPa | 28.57 mPa·s
298.15 K, 800 kPa | 28.67 mPa·s
298.15 K, 10800 kPa | 35.77 mPa·s
298.15 K, 20600 kPa | 44.2 mPa·s
298.15 K, 26000 kPa | 49.37 mPa·s
298.15 K, 30800 kPa | 54.49 mPa·s
298.15 K, 40200 kPa | 65.84 mPa·s
298.15 K, 50100 kPa | 80.08 mPa·s
298.15 K, 50600 kPa | 81.24 mPa·s
298.15 K, 51600 kPa | 84.03 mPa·s
298.15 K, 60700 kPa | 98.21 mPa·s
298.15 K, 70700 kPa | 118.8 mPa·s
298.15 K, 74700 kPa | 129.5 mPa·s
298.15 K, 75800 kPa | 130.3 mPa·s
298.15 K, 80500 kPa | 142.3 mPa·s
298.15 K, 98800 kPa | 200.7 mPa·s
298.15 K, 100100 kPa | 201.8 mPa·s
298.15 K, 125900 kPa | 315.8 mPa·s
298.15 K, 150000 kPa | 465.7 mPa·s
298.15 K, 150100 kPa | 473.5 mPa·s
303.15 K, 100 kPa | 22.58 mPa·s and 22.86 mPa·s and 22.84 mPa·s
313.15 K, 100 kPa | 15.16 mPa·s [middle of 6 runs]
313.15 K, 800 kPa | 15.15 mPa·s
313.15 K, 10700 kPa | 18.58 mPa·s
313.15 K, 20600 kPa | 22.64 mPa·s
313.15 K, 30700 kPa | 27.33 mPa·s
313.15 K, 40500 kPa | 32.69 mPa·s
313.15 K, 50200 kPa | 39.01 mPa·s
313.15 K, 60600 kPa | 46.76 mPa·s
313.15 K, 70600 kPa | 55.53 mPa·s
313.15 K, 80600 kPa | 65.68 mPa·s
313.15 K, 91700 kPa | 78.58 mPa·s
313.15 K, 112400 kPa | 108.9 mPa·s
313.15 K, 131700 kPa | 145.3 mPa·s
313.15 K, 151600 kPa | 192.8 mPa·s
313.15 K, 151900 kPa | 196.8 mPa·s
313.15 K, 168600 kPa | 250 mPa·s
313.15 K, 175400 kPa | 276.7 mPa·s
313.15 K, 190000 kPa | 336.9 mPa·s
313.15 K, 190100 kPa | 340.1 mPa·s
313.15 K, 199800 kPa | 379.2 mPa·s
313.15 K, 210400 kPa | 433.8 mPa·s
313.15 K, 227900 kPa | 549.9 mPa·s
313.15 K, 241700 kPa | 669.3 mPa·s
313.15 K, 261500 kPa | 863.8 mPa·s
313.15 K, 279800 kPa | 1065 mPa·s
313.15 K, 300500 kPa | 1395 mPa·s
323.15 K, 100 kPa | 10.73 mPa·s and 10.71 mPa·s and 10.69 mPa·s
333.15 K, 100 kPa | 7.856 mPa·s and 7.861 mPa·s
338.15 K, 100 kPa | 6.785 mPa·s
338.15 K, 9700 kPa | 8.064 mPa·s
338.15 K, 22100 kPa | 9.958 mPa·s
338.15 K, 30100 kPa | 11.36 mPa·s
338.15 K, 40600 kPa | 13.4 mPa·s
338.15 K, 40800 kPa | 13.45 mPa·s
338.15 K, 50300 kPa | 15.55 mPa·s
338.15 K, 60000 kPa | 17.98 mPa·s
338.15 K, 60700 kPa | 17.92 mPa·s
338.15 K, 80700 kPa | 24.24 mPa·s
338.15 K, 100600 kPa | 32.02 mPa·s
338.15 K, 120400 kPa | 41.62 mPa·s
338.15 K, 140400 kPa | 53.67 mPa·s
338.15 K, 160300 kPa | 69.03 mPa·s
338.15 K, 175300 kPa | 82.43 mPa·s
338.15 K, 199800 kPa | 111 mPa·s
338.15 K, 226500 kPa | 150.6 mPa·s
338.15 K, 246000 kPa | 184.6 mPa·s
338.15 K, 255100 kPa | 201.5 mPa·s
338.15 K, 274800 kPa | 252.5 mPa·s
338.15 K, 275200 kPa | 246.9 mPa·s
338.15 K, 300000 kPa | 321.5 mPa·s
338.15 K, 303600 kPa | 337.4 mPa·s
338.15 K, 324900 kPa | 416.3 mPa·s
338.15 K, 350600 kPa | 540.2 mPa·s
338.15 K, 373000 kPa | 677.2 mPa·s
343.15 K, 100 kPa | 5.979 mPa·s [middle of 4 runs]
348.15 K, 100 kPa | 5.281 mPa·s and 5.28 mPa·s and 5.248 mPa·s
348.15 K, 9700 kPa | 6.195 mPa·s
348.15 K, 20600 kPa | 7.41 mPa·s
348.15 K, 30800 kPa | 8.689 mPa·s
348.15 K, 40900 kPa | 10.14 mPa·s
348.15 K, 50400 kPa | 11.63 mPa·s
348.15 K, 60400 kPa | 13.25 mPa·s
348.15 K, 60500 kPa | 13.45 mPa·s
348.15 K, 70300 kPa | 15.23 mPa·s
348.15 K, 70900 kPa | 15.5 mPa·s
348.15 K, 80100 kPa | 17.89 mPa·s
348.15 K, 80300 kPa | 17.39 mPa·s
348.15 K, 90300 kPa | 19.95 mPa·s
348.15 K, 90600 kPa | 20.48 mPa·s
348.15 K, 100100 kPa | 22.65 mPa·s
348.15 K, 100800 kPa | 23.18 mPa·s
348.15 K, 200500 kPa | 71.69 mPa·s
348.15 K, 225500 kPa | 93.81 mPa·s
348.15 K, 250300 kPa | 121.8 mPa·s
348.15 K, 275300 kPa | 157.1 mPa·s
348.15 K, 300000 kPa | 201.5 mPa·s
348.15 K, 319700 kPa | 244.4 mPa·s
348.15 K, 339600 kPa | 295.8 mPa·s
348.15 K, 359000 kPa | 356.2 mPa·s
348.15 K, 378600 kPa | 428.5 mPa·s
353.15 K, 100 kPa | 4.692 mPa·s and 4.695 mPa·s

Conditions | mass density [kg/m3]
273.15 K | 821.58
283.15 K | 815.16
288.15 K | 811.95
293.15 K | 808.74
298.15 K | 805.55
303.15 K | 802.34
313.15 K | 795.93
323.15 K | 789.53
333.15 K | 783.14
343.15 K | 776.77
353.15 K | 770.42
363.15 K | 764.06
